According to ChEMBL document CHEMBL3045377, “An aphid repellent glycoside from Solanum laxum” (2000):

Key:
Type in all cases: functional
[1] = tested on: Schizaphis graminum; assay: Feeding deterrence activity against Schizaphis graminum fed on artificial diet containing compound assessed as relative survival at 250 uM after 12 hr by non-choice assay (reference value: 100 +/-0%)
[2] = tested on: Schizaphis graminum; assay: Feeding deterrence activity against Schizaphis graminum fed on artificial diet containing compound assessed as relative survival at 50 uM after 24 hr by non-choice assay (reference value: 100 +/-0%)
[3] = tested on: Schizaphis graminum; assay: Feeding deterrence activity against Schizaphis graminum fed on artificial diet containing compound assessed as relative survival at 500 uM after 24 hr by non-choice assay (reference value: 100 +/-0%)
[4] = tested on: Schizaphis graminum; assay: Feeding deterrence activity against Schizaphis graminum fed on artificial diet containing compound assessed as relative survival at 100 uM after 24 hr by non-choice assay (reference value: 100 +/-0%)
[5] = tested on: Schizaphis graminum; assay: Toxicity against Schizaphis graminum fed on artificial diet containing compound assessed as relative survival at 250 uM after 24 hr by non-choice assay (reference value: 100 +/-0%)
[6] = tested on: Schizaphis graminum; assay: Feeding deterrence activity against Schizaphis graminum fed on artificial diet containing compound assessed as relative survival at 50 uM after 12 hr by non-choice assay (reference value: 100 +/-0%)
[7] = tested on: Schizaphis graminum; assay: Toxicity against Schizaphis graminum fed on artificial diet containing compound assessed as relative survival at 100 uM after 24 hr by non-choice assay (reference value: 100 +/-0%)
[8] = tested on: Schizaphis graminum; assay: Feeding deterrence activity against Schizaphis graminum fed on artificial diet containing compound assessed as relative survival at 100 uM after 12 hr by non-choice assay (reference value: 100 +/-0%)
[9] = tested on: Schizaphis graminum; assay: Feeding deterrence activity against Schizaphis graminum fed on artificial diet containing compound assessed as relative survival at 250 uM after 24 hr by non-choice assay (reference value: 100 +/-0%)
[10] = tested on: Schizaphis graminum; assay: Toxicity against Schizaphis graminum fed on artificial diet containing compound assessed as relative survival at 500 uM after 24 hr by non-choice assay (reference value: 100 +/-0%)
[11] = tested on: Schizaphis graminum; assay: Feeding deterrence activity against Schizaphis graminum fed on artificial diet containing compound assessed as relative survival at 500 uM after 12 hr by non-choice assay (reference value: 100 +/-0%)
[12] = tested on: Schizaphis graminum; assay: Toxicity against Schizaphis graminum fed on artificial diet containing compound assessed as relative survival at 50 uM after 24 hr by non-choice assay (reference value: 100 +/-0%)

C[C@H]1CC[C@@]2(OC1)O[C@H]1[C@H](O)[C@H]3[C@@H]4CC=C5C[C@@H](O[C@@H]6O[C@H](CO)[C@H](O[C@@H]7O[C@H](CO)[C@@H](O)[C@H](O)[C@H]7O[C@@H]7O[C@H](CO)[C@@H](O)[C@H](O)[C@H]7O)[C@H](O)[C@H]6O[C@@H]6O[C@@H](C)[C@H](O)[C@@H](O)[C@H]6O)CC[C@]5(C)[C@H]4CC[C@]3(C)[C@H]1[C@@H]2C [Luciamin] showed a survival at 250 µM [1] of 85%, a survival at 50 µM [2] of 64% and a survival at 500 µM [3] of 76%. For the same compound, the survival at 100 µM [4] was 70%, the survival at 250 µM [5] was 48% and the survival at 50 µM [6] was 93%. For the same compound, the survival at 100 µM [7] was 49%, the survival at 100 µM [8] was 80% and the survival at 250 µM [9] was 72%. It also gave a survival at 500 µM [10] of 40%, a survival at 500 µM [11] of 70% and a survival at 50 µM [12] of 47%.
